{"source": "patent US4333944A", "about": "“8-Halo-6-phenyl-4H-s-triazolo (3,4-c) thieno 1,4-diazepin-1-ones” (Boehringer Ingelheim GmbH, priority 1977, dated 1982)", "key": {"[1]": {"test_system": "lethal effect of 125 mgm/kg of pentylene tetrazole", "assay": "Pentetrazole antagonism, mouse", "type": "in vivo, mouse (albino, NMRI)", "conditions": "po, 1 h, peroral, suspension in olive oil, 125 mgm/kg pentylene tetrazole i.p. one hour after test compound, graphically determined", "experimental": "(§1) Albino mice (NMRI) having a body weight of 20 to 25 gm or albino rats (FW49) having a body weight of 140 to 200 gm were used for the tests, and the test compound was in all cases administered perorally in suspension in olive oil by means of an esophageal sound.\n(§2) The pentylene tetrazole is administered intraperitoneally one hour after administration of the test compound [see M. I. Gluckmann, Curr. Ther. Res. 7, 721 (1965)].\n(§3) The values shown in the following table are graphically determined."}, "Acute toxicity": {"assay": "Acute toxicity", "set-up": "species or system mouse (albino, NMRI)", "conditions": "in vivo, po; mouse; peroral, suspension in olive oil; graphically determined", "excerpt": "as §1\nDetermination of the median lethal dose (LD50), i.e. the dose which causes 50% of the test animals to die [Litchfield and Wilcoxon, J. Phamacol. Exper. Therap. 96,99 (1949)].\nas §3"}, "[2]": {"test_system": "lethal effect of 125 mgm/kg of pentylene tetrazole", "assay": "Pentetrazole antagonism, rat", "type": "in vivo, rat (albino, FW49)", "conditions": "po, 1 h, peroral, suspension in olive oil, 125 mgm/kg pentylene tetrazole i.p. one hour after test compound, graphically determined", "experimental": "as §1, §2, §3"}, "[3]": {"test_system": "test animals in a conflict situation", "assay": "Conflict situation (inhibition of passive avoidance)", "type": "in vivo, rat (albino, FW49)", "conditions": "po; rat; peroral, suspension in olive oil; dose at which animals depress lever ten times despite signalled shock; graphically determined", "excerpt": "as §1\nDetermination of the dose of the test compound (DT10) at which the test animals in a conflict situation depress a lever ten times to receive a food pellet, even though a simultaneous visual signal indicates to them that they will also receive an electrical shock at the same time [see J. Geller, Arch. Int. Pharmacodyn. 149, 243 (1964)].\nas §3"}}, "data": [{"smiles": "O=c1[nH]nc2n1-c1sc(Br)cc1C(c1ccccc1Cl)=NC2", "note": "[Example 1, 8-Bromo-6-(o-chloro-phenyl)-4H-s-triazolo[3,4-c]thieno-[2,3-e]1,4-diazepin-1-one]", "values": [{"measurement": "ED50", "setting": "[1]", "value": 0.37, "unit": "mg/kg"}, {"measurement": "LD50", "setting": "Acute toxicity", "value": "> 2000", "unit": "mg/kg"}, {"measurement": "ED50", "setting": "[2]", "value": 1.9, "unit": "mg/kg"}, {"measurement": "ED (DT10 (ten lever presses))", "setting": "[3]", "value": 1.25, "unit": "mg/kg"}]}]}
